According to US20070157931A1, “System and method for optimized delivery of an aerosol to the respiratory tract” (priority 2005, published 2007):

Key:
Format in all cases: in vivo
[1] = Aerosol deposition and clearance of radiotracers in lungs of ventilated sheep (Hawkeye imaging, gamma counting of lung tissue); settings: Hi-Flo MiniHeart nebulizer
Experimental: The present study was designed to assess aerosol deposition patterns using jet nebulizers and the device of the present disclosure. These studies were conducted in the Vanderbilt University Medical Center Hawkeye scanning facility. Each sheep was surgically instrumented with catheters in a jugular vein and a carotid artery. After allowing several days for the sheep to recuperate from surgery, they were anesthetized, intubated, ventilated, and placed on the GE Hawkeye scanner bed. […] The contents of the syringe were then added to a nebulizer and aerosols generated for 30 minutes during ventilator-assisted inspiration. Planar images were taken every two minutes with anterior and posterior cameras. Nebulization was then halted, and clearance of the radiotracers over two hours was measured with Hawkeye in an identical manner. At the end of the radioisotope clearance image acquisition, a rotational CT image was taken of the sheep thoracic cavity to delineate lung boundaries and chest anatomy. The sheep was sacrificed and its lungs excised. Lungs were placed on grid paper and diced with a rectangular cutting grid. Lung tissue was placed in plastic vials and gamma energy emissions of each isotope measured with a gamma counter.

[2] = Wasted fraction of continuously delivered radioaerosol in ventilated sheep, expiratory filter gamma counting; settings: continuous zero flow nebulizer
Experimental: This study was designed to compare the wasted fraction of ^99mTc-DTPA aerosols delivered continuously with the zero flow nebulizer to control sheep (n=6) and sheep administered 2 mg/kg E. coli endotoxin. This dose of endotoxin in sheep causes a period of intense bronchoconstriction and pulmonary vasoconstriction followed by pulmonary edema. The experimental setup was similar to that illustrated in FIG. 15, except that no scintillation probe was used and isotope waste was measured by counting radioactivity in a filter placed in the expiratory portion of the ventilator tubing using a gamma energy counter. The wasted fraction of aerosol was more than 3-fold higher during endotoxin-induced lung injury with endotoxin [3,836,141 (n=1)] than when the lungs were normal [1,289,102±125,326 (n=6)].

anesthetized sheep = experiment: Bronchoconstriction produced by sodium arachidonate aerosol in anesthetized ventilated sheep; settings: aerosolized, dose 1.5 grams/50 ml typically diluted 1:3
Experimental: In anesthetized sheep with either normal lung mechanics or during bronchoconstriction, the effects of phasic aerosol delivery on the amount of radioisotope deposited in the lungs and the amount expired (as collected in a waste filter) were tested. Results were compared to those in which aerosol was delivered continuously. Sheep were anesthetized and ventilated with oxygen-enriched air at a tidal volume of 500 ml and a respiratory rate of 10 breaths per minute. The ventilator setup is illustrated schematically in FIG. 15.
FIGS. 16-18 also illustrate effects of bronchoconstriction produced by an aerosol of sodium arachidonate on aerosol delivery efficiency. These studies were conducted after the control studies discussed above. Arachidonic acid was converted to sodium arachidonate by the procedure of Ogletree and Brigham and was aerosolized (Dose=1.5 grams/50 ml typically diluted 1:3) to cause marked bronchoconstriction and/or decreased lung compliance and thus elevated airway pressure. […] During bronchoconstriction, ^99mTc-DTPA was administered by phasic aerosol delivery while maintaining the arachidonate delivery. […]

O=C([O-])CN(CCN(CC(=O)[O-])CC(=O)[O-])CCN(CC(=O)[O-])CC(=O)[O-].[99Tc+4] [99mTc-DTPA]
tracer remaining in lungs after halting aerosol generation ([1]; 2 hours after halting aerosol generation): much of the tracer remained
radioisotope distribution in lung tissue ([1]; gamma counting of lung tissue samples): higher dorsal (towards back) and caudal (towards tail) deposition
wasted fraction, endotoxin-induced lung injury versus normal lungs [2]: more than 3 fold
wasted fraction of aerosol (radioactivity in expiratory filter) ([2]; endotoxin-induced lung injury, 2 mg/kg E. coli endotoxin, n=1): 3,836,141
wasted fraction of aerosol (radioactivity in expiratory filter) ([2]; normal lungs, control sheep, n=6): 1,289,102±125,326

CCCCC/C=C\C/C=C\C/C=C\C/C=C\CCCC(=O)[O-].[Na+] [sodium arachidonate]
hypoxemia during bronchoconstriction (anesthetized sheep): marked hypoxemia
airway pressure during bronchoconstriction (anesthetized sheep; within 20 minutes): 48-50 cm H2O
